Here are results for 30 molecules from publication PMC3900303 (Toxicology and applied pharmacology, 2013).

Where two headings read alike, the source gives them in different places.

Data set [1] concerns Human iPSC-derived cardiomyocytes. The experiment in a line: High-throughput cardiomyocyte beating assay. Conditions: for effect on the beating rate / beat rate / effect on spacing between peaks and regularity / chronotrope effect: general clustering analysis of concentration-response; for effect on the beating rate / beat rate: 3 nM to 30 μM; for impact on the shape of the peaks: compounds known to prolong the QT interval; for effect on beating parameters at 30 minutes: 30 min exposure; for effect on beating: at 3 μM; for hormesis-like concentration effect on beating rate: low vs high concentrations.

For data set [2] the test system is unchanged. The experiment in a line: Cell viability imaging. Format: cell-based. Conditions: evaluated 24 hrs after treatment.
The test system is the same in data set [3].

With `CC(C)COCC(CN(Cc1ccccc1)c1ccccc1)N1CCCC1` (stereo not drawn) [bepridil], the “effect on the beating rate / beat rate” value in data set [1] is “strongly inhibited”.

As for `CC(C)N(CCC(C(N)=O)(c1ccccc1)c1ccccn1)C(C)C` (stereo not drawn) [disopyramide], in data set [2], the “effect on cell viability” value is reported as “No effect”. For the same molecule, the “effect on the beat rate” value in data set [1] (30 min exposure time-point) is “no effect”. Moreover, the “effect on the peak shape parameters” value in data set [1] (30 min exposure time-point (Figure 2)) is on record as “clear concentration-dependent effect”. For the same molecule, in data set [1], the “impact on the shape of the peaks” value was “profound impact”; the “effect on spacing between peaks and regularity” value was “affected”; the “effect on the beating rate / beat rate” value is on record as “little effect”.

Consider `CCN(CC)CC(=O)Nc1c(C)cccc1C` [lidocaine], for which, in data set [1], the “effect on spacing between peaks and regularity” value was “affected”; the “effect on the beating rate / beat rate” value is given as “little effect”.

As for `Cc1cnc(NC(=O)C2=C(O)c3ccccc3S(=O)(=O)N2C)s1` [meloxicam], in data set [1], the “effect on beating parameters at 30 minutes” value (shortened to “effect on beating parameters”) is “did not have an effect”.

Consider `CC(=O)O.O=C(NCC1CCCCN1)c1cc(OCC(F)(F)F)ccc1OCC(F)(F)F` (stereo not drawn) [flecainid acetate], for which, in data set [1], the “effect on spacing between peaks and regularity” value is on record as “affected”; the “effect on the beating rate / beat rate” value was “little effect”.

As for `COC(=O)C1=C(C)NC(C)=C(C(=O)OCCN(C)Cc2ccccc2)C1c1cccc([N+](=O)[O-])c1` (stereo not drawn) [nicardipine], in data set [1], the “effect on the beating rate / beat rate” value is recorded as “strongly inhibited”.

For `CNCCCN1c2ccccc2CCc2ccccc21` [desipramine], the “impact on the shape of the peaks” value in data set [1] was “profound impact”.

Consider `COc1ccc([C@@H]2Sc3ccccc3N(CCN(C)C)C(=O)[C@@H]2OC(C)=O)cc1` [diltiazem], for which, in data set [1], the “effect on the beating rate / beat rate” value was “strongly inhibited”.

With `O=c1[nH]cc(F)c(=O)[nH]1` [5-fluoracil], in data set [1], the “effect on beating parameters” value is reported as “did not have an effect”.

In the case of `CCCCN1CCCCC1C(=O)Nc1c(C)cccc1C` (stereo not drawn) [bupivacaine], the beating profile entry in data set [1] (multi-parametric peak pattern) is “appearance of wide peaks”.

Take `CCCCc1oc2ccccc2c1C(=O)c1cc(I)c(OCCN(CC)CC)c(I)c1` [amiodarone]: in data set [1], the “impact on the shape of the peaks” value is “profound impact” and the chronotrope effect result is given as “negative chronotrope effect”.

Take `CC(C)Cc1ccc(C(C)C(=O)O)cc1` (stereo not drawn) [ibuprofen]: the “effect on beating parameters” value in data set [1] is reported as “did not have an effect”.

As to `CS(=O)(=O)c1ccc(C2=C(c3ccccc3)C(=O)OC2)cc1` [rofecoxib], in data set [1], the “effect on beating parameters” value is on record as “did not have an effect”.

Take `COc1cccc2c1C(=O)c1c(O)c3c(c(O)c1C2=O)C[C@@](O)(C(C)=O)C[C@@H]3O[C@H]1C[C@H](N)[C@H](O)[C@H](C)O1` [daunorubicin]: in data set [1], the “effect on beating parameters” value is reported as “did not have an effect”.

For `CC(C)(C)c1ccc(C(O)CCCN2CCC(C(O)(c3ccccc3)c3ccccc3)CC2)cc1` (stereo not drawn) [terfenadine], the “effect on the beating rate / beat rate” value in data set [1] is “strongly inhibited”.

As for `CN(CCOc1ccc(CC2SC(=O)NC2=O)cc1)c1ccccn1` (stereo not drawn) [rosiglitazone], the “effect on beating parameters” value in data set [1] is given as “did not have an effect”.

For `COc1cccc2c1C(=O)c1c(O)c3c(c(O)c1C2=O)C[C@@](O)(C(=O)CO)C[C@@H]3O[C@H]1C[C@H](N)[C@H](O)[C@H](C)O1` [doxorubicin], the “effect on beating parameters” value in data set [1] was “did not have an effect”.

In the case of `CC(C)NCC(O)COc1cccc2[nH]ccc12` (stereo not drawn) [pindolol], in data set [1], the chronotrope effect entry was “negative chronotrope effect”.

In the case of `CCN(CC)CCNC(=O)c1ccc(N)cc1` [procainamide], the “impact on the shape of the peaks” value in data set [1] was “profound impact”.

Turning to `C=C[C@H]1C[N@@]2CC[C@H]1C[C@@H]2[C@@H](O)c1ccnc2ccc(OC)cc12` [quinidine], the “impact on the shape of the peaks” value in data set [1] is recorded as “profound impact”.

`CCc1ccc(CCOc2ccc(CC3SC(=O)NC3=O)cc2)nc1` (stereo not drawn) [pioglitazone]: the “effect on beating parameters” value in data set [1] was “did not have an effect”.

For the molecule `CC(C)NCC(O)c1ccc(NS(C)(=O)=O)cc1` (stereo not drawn) [sotalol], the “impact on the shape of the peaks” value in data set [1] is given as “profound impact”.

`COc1ccc(CCN2CCC(Nc3nc4ccccc4n3Cc3ccc(F)cc3)CC2)cc1` [astemizol]: the “effect on the beating rate / beat rate” value in data set [1] was “strongly inhibited”.

In the case of `C[C@H]1O[C@@H](O[C@H]2[C@@H](O)C[C@H](O[C@H]3[C@@H](O)C[C@H](O[C@H]4CC[C@@]5(C)[C@H](CC[C@@H]6[C@@H]5C[C@@H](O)[C@]5(C)[C@@H](C7=CC(=O)OC7)CC[C@]65O)C4)O[C@@H]3C)O[C@@H]2C)C[C@H](O)[C@@H]1O` [digoxin], in data set [1], the effect on beating entry is given as “blocked beating completely” and the “hormesis-like concentration effect on beating rate” value is listed as “increased at low concentrations, but decreased or completely stopped at high doses”.

Consider `OCc1cc(C(O)CNCCCCCCOCCCCc2ccccc2)ccc1O` (stereo not drawn) [salmeterol], for which, in data set [1], the “hormesis-like concentration effect on beating rate” value was “increased at low concentrations, but decreased or completely stopped at high doses”.

Take `O=C(O)Cc1ccccc1Nc1c(Cl)cccc1Cl` [diclofenac]: in data set [1], the “effect on beating parameters” value is listed as “did not have an effect”.

Regarding `C[C@H]1O[C@@H](O[C@H]2[C@@H](O)C[C@H](O[C@H]3[C@@H](O)C[C@H](O[C@H]4CC[C@@]5(C)[C@H](CC[C@@H]6[C@@H]5CC[C@]5(C)[C@@H](C7=CC(=O)OC7)CC[C@]65O)C4)O[C@@H]3C)O[C@@H]2C)C[C@H](O)[C@@H]1O` [digitoxin], the effect on beating result in data set [1] is listed as “blocked beating completely”.

In the case of `CC(C)NCC(O)c1ccc(O)c(O)c1` (stereo not drawn) [isoproterenol], the chronotrope effect result in data set [1] is reported as “positive chronotrope effect”.

Regarding `CN(C)CCCN1c2ccccc2CCc2ccccc21` [imipramine], the “impact on the shape of the peaks” value in data set [1] is listed as “profound impact”.

With `N.N.[Cl][Pt][Cl]` [cisplatin, cis-diamineplatinum(II)dichloride], the “effect on beating parameters” value in data set [3] is “did not have an effect”.
